Data as given in patent US20250353864A1, “INDAZOLE CONTAINING MACROCYCLES AND THEIR USE” (BLOSSOMHILL THERAPEUTICS, INC., priority 2022, published 2025).
Each block holds one compound with its values, some of them ahead of it.

Assays:
Format in all cases: biochemical
[1] = target: EGFR L858R/T790M/C797S mutant (Homo sapiens (Human), UniProt P00533, C797S/L858R/T790M); experiment: HotSpot radiometric kinase assay, EGFR L858R/T790M/C797S mutant; details: 10 μM ATP
Procedure: (§1) Biochemical Assays for Inhibition of Wild-Type and Mutant EGFRs
(§2) Briefly, specific kinase/substrate pairs along with required cofactors were prepared in reaction buffer; 20 mM Hepes pH 7.5, 10 mM […], 1 mM EGTA, 0.02% Brij35, 0.02 mg/ml BSA, 0.1 mM Na3VO4, 2 mM DTT, 1% DMSO. Compounds were delivered into the reaction, followed […] later by addition of a mixture of ATP (Sigma, St. Louis MO) and ^33P ATP (Perkin Elmer, Waltham MA) to a final concentration of 10 μM. Reactions were carried out at room temperature for 120 min, followed by spotting of the reactions onto P81 ion exchange filter paper (Whatman Inc., Piscataway, NJ). Unbound phosphate was removed by extensive washing of filters in 0.75% phosphoric acid. […] IC50 values and curve fits were obtained using Prism (GraphPad Software).

[2] = target: EGFR Δ746-750/C797S mutant (Homo sapiens (Human), UniProt P00533, C797S/DEL746-750); experiment: HotSpot radiometric kinase assay, EGFR Δ746-750/C797S mutant; details: 10 μM ATP
Procedure: as §1, §2

EGFR Δ746-750 mutant = EGFR Δ746-750 mutant (Homo sapiens (Human), UniProt P00533, DEL746-750); experiment: HotSpot radiometric kinase assay, EGFR Δ746-750 mutant; details: 10 μM ATP
Chain of EGFR Δ746-750 mutant (P00533 other isoform, or with tags, fused parts or gaps del 1-668/del 746-750 limits assumed): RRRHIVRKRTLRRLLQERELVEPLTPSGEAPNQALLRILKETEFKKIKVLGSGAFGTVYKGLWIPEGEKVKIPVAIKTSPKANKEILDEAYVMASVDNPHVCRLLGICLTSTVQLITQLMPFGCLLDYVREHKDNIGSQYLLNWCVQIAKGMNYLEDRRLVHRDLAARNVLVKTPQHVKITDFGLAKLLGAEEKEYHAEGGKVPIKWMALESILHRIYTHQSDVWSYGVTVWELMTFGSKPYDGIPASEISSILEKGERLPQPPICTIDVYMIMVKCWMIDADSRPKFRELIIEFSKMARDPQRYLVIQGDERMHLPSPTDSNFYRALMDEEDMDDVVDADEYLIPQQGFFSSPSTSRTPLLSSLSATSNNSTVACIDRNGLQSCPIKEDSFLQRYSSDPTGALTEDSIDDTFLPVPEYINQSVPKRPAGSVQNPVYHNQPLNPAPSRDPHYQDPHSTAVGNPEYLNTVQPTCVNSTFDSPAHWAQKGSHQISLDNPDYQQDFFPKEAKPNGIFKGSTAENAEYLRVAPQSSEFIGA
Procedure: as §1, §2

EGFR (D770_N771insNPG) = EGFR (D770_N771insNPG) (Homo sapiens (Human), UniProt P00533, INS770NPG); experiment: HotSpot radiometric kinase assay, EGFR (D770_N771insNPG); details: 10 μM ATP, read-out: EGFR (Δ770_N771insNPG) IC50
Chain of EGFR (D770_N771insNPG) (P00533 other isoform, or with tags, fused parts or gaps del 1-668/ins NPG behind 770 limits assumed): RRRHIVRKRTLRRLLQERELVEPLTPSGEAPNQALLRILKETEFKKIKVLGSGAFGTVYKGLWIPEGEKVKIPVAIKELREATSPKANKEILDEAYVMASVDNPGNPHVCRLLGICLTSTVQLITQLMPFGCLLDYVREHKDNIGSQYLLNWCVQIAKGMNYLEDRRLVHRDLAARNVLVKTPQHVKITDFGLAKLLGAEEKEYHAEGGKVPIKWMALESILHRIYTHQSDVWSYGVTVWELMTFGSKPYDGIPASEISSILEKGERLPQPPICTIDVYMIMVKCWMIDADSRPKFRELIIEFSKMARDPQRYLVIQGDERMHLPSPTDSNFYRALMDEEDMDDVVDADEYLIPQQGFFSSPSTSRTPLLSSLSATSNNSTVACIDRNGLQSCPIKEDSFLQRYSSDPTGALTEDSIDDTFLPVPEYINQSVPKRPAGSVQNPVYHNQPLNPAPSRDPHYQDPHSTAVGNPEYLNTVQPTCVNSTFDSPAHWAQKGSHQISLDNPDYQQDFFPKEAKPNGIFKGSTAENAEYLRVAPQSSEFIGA
Procedure: as §1, §2

EGFR WT = EGFR WT (Homo sapiens (Human), UniProt P00533); experiment: HotSpot radiometric kinase assay (Reaction Biology), EGFR WT; details: 10 μM ATP
Chain of EGFR WT (P00533 25-1210): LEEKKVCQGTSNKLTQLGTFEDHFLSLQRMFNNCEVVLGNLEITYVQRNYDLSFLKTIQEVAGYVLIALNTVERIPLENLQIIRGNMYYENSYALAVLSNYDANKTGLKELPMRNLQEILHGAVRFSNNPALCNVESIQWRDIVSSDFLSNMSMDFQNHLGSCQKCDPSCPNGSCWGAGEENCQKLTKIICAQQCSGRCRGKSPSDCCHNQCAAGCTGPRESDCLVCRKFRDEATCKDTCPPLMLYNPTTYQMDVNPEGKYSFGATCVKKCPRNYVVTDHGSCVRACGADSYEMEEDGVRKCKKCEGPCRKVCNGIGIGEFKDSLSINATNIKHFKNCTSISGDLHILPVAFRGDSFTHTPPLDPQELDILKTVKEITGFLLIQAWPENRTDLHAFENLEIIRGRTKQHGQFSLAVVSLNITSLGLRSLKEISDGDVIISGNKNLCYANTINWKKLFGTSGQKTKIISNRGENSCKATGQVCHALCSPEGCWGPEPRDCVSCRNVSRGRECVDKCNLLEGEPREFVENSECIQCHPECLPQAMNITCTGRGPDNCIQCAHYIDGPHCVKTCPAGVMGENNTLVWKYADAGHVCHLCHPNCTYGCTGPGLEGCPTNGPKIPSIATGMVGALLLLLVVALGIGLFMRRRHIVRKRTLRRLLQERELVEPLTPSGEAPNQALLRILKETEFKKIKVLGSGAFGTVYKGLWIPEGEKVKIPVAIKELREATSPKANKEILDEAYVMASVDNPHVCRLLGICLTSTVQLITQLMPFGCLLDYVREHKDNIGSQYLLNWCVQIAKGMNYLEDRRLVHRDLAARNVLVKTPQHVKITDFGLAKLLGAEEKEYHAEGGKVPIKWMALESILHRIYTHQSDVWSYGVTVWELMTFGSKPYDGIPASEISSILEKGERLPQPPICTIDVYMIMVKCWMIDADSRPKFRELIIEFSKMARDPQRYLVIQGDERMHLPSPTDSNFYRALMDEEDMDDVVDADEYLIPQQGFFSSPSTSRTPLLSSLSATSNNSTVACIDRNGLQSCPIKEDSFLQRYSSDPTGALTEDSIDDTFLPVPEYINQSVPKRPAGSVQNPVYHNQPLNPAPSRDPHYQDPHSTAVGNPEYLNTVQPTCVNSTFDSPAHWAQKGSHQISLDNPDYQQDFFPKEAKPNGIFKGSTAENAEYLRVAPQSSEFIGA
Procedure: as §1, §2

EGFR L858R mutant = EGFR L858R mutant (Homo sapiens (Human), UniProt P00533, L858R); experiment: HotSpot radiometric kinase assay, EGFR L858R mutant; details: 10 μM ATP
Chain of EGFR L858R mutant (P00533 25-1210 L858R): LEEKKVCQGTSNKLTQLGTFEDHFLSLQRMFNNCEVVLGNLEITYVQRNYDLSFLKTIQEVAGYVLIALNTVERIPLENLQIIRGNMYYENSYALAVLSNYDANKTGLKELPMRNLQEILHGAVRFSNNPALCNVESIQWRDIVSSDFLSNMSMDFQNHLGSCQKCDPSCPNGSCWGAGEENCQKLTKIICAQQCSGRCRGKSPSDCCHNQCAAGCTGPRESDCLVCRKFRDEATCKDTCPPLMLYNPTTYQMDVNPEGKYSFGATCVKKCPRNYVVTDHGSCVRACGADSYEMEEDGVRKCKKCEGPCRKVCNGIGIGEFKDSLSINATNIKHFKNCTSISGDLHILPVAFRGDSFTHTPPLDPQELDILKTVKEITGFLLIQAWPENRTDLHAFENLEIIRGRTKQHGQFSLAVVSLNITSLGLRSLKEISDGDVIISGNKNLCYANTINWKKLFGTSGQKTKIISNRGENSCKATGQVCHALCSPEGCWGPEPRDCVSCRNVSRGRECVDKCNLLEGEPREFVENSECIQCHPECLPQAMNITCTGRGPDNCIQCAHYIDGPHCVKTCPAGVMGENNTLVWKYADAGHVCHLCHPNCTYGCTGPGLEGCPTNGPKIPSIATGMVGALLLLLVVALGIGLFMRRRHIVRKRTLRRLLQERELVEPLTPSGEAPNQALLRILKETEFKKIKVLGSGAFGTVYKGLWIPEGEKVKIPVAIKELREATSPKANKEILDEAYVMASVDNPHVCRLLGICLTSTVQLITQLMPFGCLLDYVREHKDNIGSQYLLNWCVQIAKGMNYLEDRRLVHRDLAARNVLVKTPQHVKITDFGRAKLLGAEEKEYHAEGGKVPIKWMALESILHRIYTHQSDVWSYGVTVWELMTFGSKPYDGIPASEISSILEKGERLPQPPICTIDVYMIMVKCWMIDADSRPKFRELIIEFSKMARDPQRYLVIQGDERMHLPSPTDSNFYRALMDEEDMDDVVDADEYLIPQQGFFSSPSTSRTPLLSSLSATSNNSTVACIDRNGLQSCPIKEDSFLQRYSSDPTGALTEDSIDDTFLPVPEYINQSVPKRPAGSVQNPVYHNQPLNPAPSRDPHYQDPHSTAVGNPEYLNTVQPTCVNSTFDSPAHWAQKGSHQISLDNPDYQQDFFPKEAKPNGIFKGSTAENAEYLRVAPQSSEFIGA
Procedure: as §1, §2

Chain of EGFR L858R/T790M/C797S mutant (P00533 25-1210 T790M/C797S/L858R): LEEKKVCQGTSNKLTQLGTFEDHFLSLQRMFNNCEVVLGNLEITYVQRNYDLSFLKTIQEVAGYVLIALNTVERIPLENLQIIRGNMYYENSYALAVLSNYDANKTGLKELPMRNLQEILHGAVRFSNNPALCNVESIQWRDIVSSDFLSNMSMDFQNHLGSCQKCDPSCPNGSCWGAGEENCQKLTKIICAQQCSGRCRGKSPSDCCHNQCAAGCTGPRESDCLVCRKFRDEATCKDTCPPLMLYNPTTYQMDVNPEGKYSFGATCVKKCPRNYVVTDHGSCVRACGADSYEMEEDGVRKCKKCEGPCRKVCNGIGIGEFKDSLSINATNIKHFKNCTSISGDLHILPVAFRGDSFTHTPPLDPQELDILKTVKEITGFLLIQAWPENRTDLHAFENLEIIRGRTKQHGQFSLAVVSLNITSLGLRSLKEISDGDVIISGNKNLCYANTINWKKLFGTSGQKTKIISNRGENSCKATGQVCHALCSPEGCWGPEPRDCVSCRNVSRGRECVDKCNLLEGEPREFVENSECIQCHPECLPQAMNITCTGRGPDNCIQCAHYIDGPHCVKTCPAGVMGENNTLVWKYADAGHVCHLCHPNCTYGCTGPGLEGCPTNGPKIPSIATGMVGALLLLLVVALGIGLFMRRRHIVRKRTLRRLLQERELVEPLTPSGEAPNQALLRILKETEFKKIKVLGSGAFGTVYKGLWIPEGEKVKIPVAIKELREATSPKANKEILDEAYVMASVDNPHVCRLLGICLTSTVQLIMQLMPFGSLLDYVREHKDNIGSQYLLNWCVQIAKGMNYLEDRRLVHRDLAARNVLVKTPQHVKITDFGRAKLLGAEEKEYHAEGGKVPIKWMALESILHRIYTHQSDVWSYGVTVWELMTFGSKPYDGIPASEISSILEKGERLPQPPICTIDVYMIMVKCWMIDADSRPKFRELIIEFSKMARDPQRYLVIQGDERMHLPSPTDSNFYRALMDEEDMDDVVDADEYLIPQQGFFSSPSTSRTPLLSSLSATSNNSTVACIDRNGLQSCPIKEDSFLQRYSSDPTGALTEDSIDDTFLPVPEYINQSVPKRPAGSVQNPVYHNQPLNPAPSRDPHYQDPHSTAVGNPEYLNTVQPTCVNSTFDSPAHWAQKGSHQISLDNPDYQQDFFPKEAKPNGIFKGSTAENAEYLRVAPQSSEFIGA

SMILES: CNC(=O)c1cnc2c(c1)/C=C/c1n[nH]c3ccc(cc13)-c1cnn(C)c1COCCO2 [Example 3, (18E)-N,8-dimethyl-8,9,11,12-tetrahydro-2H-3,5-ethenodipyrazolo[3′,4′:9,10;4″,3″:13,14] [1,4]dioxacyclopentadecino[5,6-b]pyridine-16-carboxamide]
- IC50 [1]: 863 nM

SMILES: Cc1c2c(nn1CCO)OCCCOc1c(cnn1C)-c1ccc3[nH]nc(c3c1)/C=C/2 [Ex. 24, 2-[(17E)-8,16-dimethyl-2,8,11,12-tetrahydro-10H,15H-3,5-etheno[1,5]dioxacyclopentadecino[10,11-c:15,14-c′:6,7-c″]tripyrazol-15-yl]ethan-1-ol]
- IC50 (EGFR WT): > 1000 nM
- IC50 (EGFR Δ746-750 mutant): 755 nM
- IC50 [1]: 315 nM
- IC50 (EGFR (D770_N771insNPG)): 1770 nM
- IC50 (EGFR L858R mutant): > 1000 nM

SMILES: Cc1c2c(nn1C)OCCCOc1c(cnn1C)-c1ccc3[nH]nc(c3c1)/C=C/2 [Ex. 9, (17E)-8,15,16-trimethyl-2,11,12,15-tetrahydro-8H,10H-3,5-etheno[1,5]dioxacyclopentadecino[10,11-c:15,14-c′:6,7-c″]tripyrazole]
- IC50 (EGFR WT): 1170 nM
- IC50 (EGFR Δ746-750 mutant): 284 nM
- IC50 [1]: 27.2 nM
- IC50 (EGFR (D770_N771insNPG)): 945 nM
- IC50 (EGFR L858R mutant): 349 nM

SMILES: Cc1nn(CC(C)(C)O)c2c1/C=C/c1n[nH]c3ccc(cc13)-c1cnn(C)c1OCCCO2 [Example 30, 1-[(17E)-8,16-dimethyl-2,8,11,12-tetrahydro-10H,14H-3,5-etheno[1,5]dioxacyclopentadecino[10,11-c:15,14-c′:6,7-c″]tripyrazol-14-yl]-2-methylpropan-2-ol]
- IC50 (EGFR WT): 1300 nM
- IC50 (EGFR Δ746-750 mutant): 217 nM
- IC50 [1]: 36.8 nM
- IC50 (EGFR (D770_N771insNPG)): 983 nM
- IC50 (EGFR L858R mutant): 268 nM

SMILES: Cc1nn(C)c2c1/C=C/c1n[nH]c3ccc(cc13)-c1cnn(C)c1CN(C)C[C@H](C)O2 (single isomer, unassigned) [Example 97]
- IC50 [2]: 101 nM
- IC50 (EGFR Δ746-750 mutant): 221 nM
- IC50 (EGFR (D770_N771insNPG)): 304 nM

SMILES: Cc1c2c(nn1CCN1CCCC1)OCCOC(C)c1c(cnn1C)-c1ccc3[nH]nc(c3c1)/C=C/2 (stereo not drawn) [Example 84, (17E)-8,9,16-trimethyl-15-[2-(pyrrolidin-1-yl)ethyl]-2,8,9,11,12,15-hexahydro-3,5-etheno[1,4]dioxacyclopentadecino[11,10-c:15,14-c′:6,7-c″]tripyrazole]
- IC50 [2]: 130 nM
- IC50 (EGFR Δ746-750 mutant): 381 nM
- IC50 (EGFR (D770_N771insNPG)): 551 nM

SMILES: Cc1ccc2c(n1)/C=C/c1n[nH]c3ccc(cc13)-c1cnn(C)c1O[C@@H](C)CCO2 [Ex. 39, (10S,18E)-8,10,16-trimethyl-2,8,11,12-tetrahydro-10H-3,5-ethenodipyrazolo[3′,4′:10,11;4″,3″:14,15] [1,5]dioxacyclopentadecino[7,6-b]pyridine]
- IC50 (EGFR Δ746-750 mutant): 176 nM
- IC50 (EGFR (D770_N771insNPG)): 1440 nM

SMILES: Cc1nn(C)c2c1/C=C/c1n[nH]c3ccc(cc13)-c1c(C)nn(C)c1OCCN(C)C2 [Example 47, (17E)-6,8,12,14,16-pentamethyl-2,10,11,12,13,14-hexahydro-8H-3,5-ethenotripyrazolo[3,4-f:3′,4′-j:4″,3″- n][1,4]oxazacyclopentadecine]
- IC50 [2]: 944 nM
- IC50 (EGFR Δ746-750 mutant): 488 nM
- IC50 (EGFR (D770_N771insNPG)): > 1000 nM

SMILES: Cc1c2c(nn1CC(C)(C)O)OCCCOc1c(cnn1C)-c1ccc3[nH]nc(c3c1)/C=C/2 [Ex. 28, 1-[(17E)-8,16-dimethyl-2,8,11,12-tetrahydro-10H,15H-3,5-etheno[1,5]dioxacyclopentadecino[10,11-c:15,14-c′:6,7-c″ ]tripyrazol-15-yl]-2-methylpropan-2-ol]
- IC50 (EGFR WT): > 1000 nM
- IC50 (EGFR Δ746-750 mutant): 819 nM
- IC50 [1]: 578 nM
- IC50 (EGFR (D770_N771insNPG)): > 1000 nM
- IC50 (EGFR L858R mutant): 1000 nM

Continued, values first:

- IC50 [2]: 31.3 nM
- IC50 (EGFR Δ746-750 mutant): 34.6 nM
- IC50 (EGFR (D770_N771insNPG)): 55.4 nM
SMILES: Cc1c2c(nn1[C@H]1CCN(C)C[C@@H]1O)OCCCOc1c(cnn1C)-c1ccc3[nH]nc(c3c1)/C=C/2 (racemic) [Example 83, (rac)-4-[(17E)-8,16-dimethyl-2,8,11,12-tetrahydro-10H,15H-3,5-etheno[1,5]dioxacyclopentadecino[10,11-c:15,14-c′:6,7-c″]tripyrazol-15-yl]-1-methylpiperidin-3-ol]

- IC50 [2]: 6.67 nM
- IC50 (EGFR Δ746-750 mutant): 19.7 nM
- IC50 (EGFR (D770_N771insNPG)): 191 nM
SMILES: Cc1c2c(nn1CCN1CCCC1)CN(C)C[C@H](C)Oc1c(cnn1C)-c1ccc3[nH]nc(c3c1)/C=C/2 [Example 89, (10S,17E)-8,10,12,16-tetramethyl-15-[2-(pyrrolidin-1-yl)ethyl]-2,10,11,12,13,15-hexahydro-8H-3,5-ethenotripyrazolo[3,4-f:3′,4′-j:4″,3″-n][1,4]oxazacyclopentadecine]

- IC50 (EGFR WT): 927 nM
- IC50 (EGFR Δ746-750 mutant): 58.7 nM
- IC50 [1]: 4.93 nM
- IC50 (EGFR (D770_N771insNPG)): 731 nM
- IC50 (EGFR L858R mutant): 67.7 nM
SMILES: CC(=O)Cn1nc(C)c2c1OCCCOc1c(cnn1C)-c1ccc3[nH]nc(c3c1)/C=C/2 [Example 31, 1-[(17E)-8,16-dimethyl-2,8,11,12-tetrahydro-10H,14H-3,5-etheno[1,5]dioxacyclopentadecino[10,11-c:15,14-c′:6,7-c″]tripyrazol-14-yl]propan-2-one]

- IC50 (EGFR WT): 1260 nM
- IC50 (EGFR Δ746-750 mutant): 155 nM
- IC50 [1]: 37.3 nM
- IC50 (EGFR (D770_N771insNPG)): 457 nM
- IC50 (EGFR L858R mutant): 242 nM
SMILES: Cc1nn(CCN2CCCC2)c2c1/C=C/c1n[nH]c3ccc(cc13)-c1cnn(C)c1OCCCO2 [Ex. 32, (17E)-8,16-dimethyl-14-[2-(pyrrolidin-1-yl)ethyl]-2,11,12,14-tetrahydro-8H,10H-3,5-etheno[1,5]dioxacyclopentadecino[10,11-c:15,14-c′:6,7-c″ ]tripyrazole]

- IC50 [2]: 0.31 nM
- IC50 (EGFR Δ746-750 mutant): 0.13 nM
- IC50 (EGFR (D770_N771insNPG)): 0.18 nM
SMILES: CCOc1nn(CCO)c2c1/C=C/c1n[nH]c3ccc(cc13)-c1cnn(C)c1O[C@H](C)[C@H]1CCCN1C2 (single isomer, unassigned) [compound 241]

- IC50 (EGFR WT): 326 nM
- IC50 (EGFR Δ746-750 mutant): 154 nM
- IC50 [1]: 40.9 nM
- IC50 (EGFR (D770_N771insNPG)): 191 nM
- IC50 (EGFR L858R mutant): 114 nM
SMILES: Cc1c2c(nn1CCN1CCCC1)OCCCOc1c(cnn1C)-c1ccc3[nH]nc(c3c1)/C=C/2 [Example 34, (17E)-8,16-dimethyl-15-[2-(pyrrolidin-1-yl)ethyl]-2,11,12,15-tetrahydro-8H,10H-3,5-etheno[1,5]dioxacyclopentadecino[10,11-c:15,14-c′:6,7-c″]tripyrazole]

- IC50 (EGFR WT): 523 nM
- IC50 (EGFR Δ746-750 mutant): 132 nM
- IC50 [1]: 48.4 nM
- IC50 (EGFR (D770_N771insNPG)): 521 nM
- IC50 (EGFR L858R mutant): 49.2 nM
SMILES: Cn1ncc2c1OCCCCOc1ccccc1/C=C/c1n[nH]c3ccc-2cc13 [Ex. 16, (11E)-1-methyl-18,19,20,21-tetrahydro-1H,8H-10,7,4-(ethan[1]yl[1,2]diylidene)pyrazolo[3,4-g][1,6,13,14]benzodioxadiazacyclononad ecine]

- IC50 (EGFR Δ746-750 mutant): 74.3 nM
- IC50 (EGFR (D770_N771insNPG)): 713 nM
SMILES: CCc1nn(C)c2c1/C=C/c1n[nH]c3ccc(cc13)-c1cnn(C)c1OCCCO2 [Ex. 10, (17E)-16-ethyl-8,14-dimethyl-2,11,12,14-tetrahydro-8H,10H-3,5-etheno[1,5]dioxacyclopentadecino[10,11-c:15,14-c′:6,7-c″]tripyrazole]

- IC50 [2]: 40.3 nM
- IC50 (EGFR Δ746-750 mutant): 55.5 nM
- IC50 (EGFR (D770_N771insNPG)): 304 nM
SMILES: CCOc1nn(CCO)c2c1/C=C/c1n[nH]c3ccc(cc13)-c1cnn(C)c1OC1CCCN(C2)C1C (stereo not drawn) [Example 242, 2-[(19E)-18-ethoxy-8,21-dimethyl-2,10,11,12,13,15-hexahydro-3,5-etheno-10,14-methanotripyrazolo[3,4-h:3′,4′-l:4″,3″-p][1,6]oxazacycloheptadecin-16(8H)-yl]ethan-1-ol]
